# Test results reported in patent US20190269596A1, “COSMETIC USE AND METHOD FOR IMPROVING PHYSIOLOGICAL FUNCTIONS OF THE SKIN BY INCREASING THE EXPRESSION OF UBIAD1” (ISP Investments LLC, priority 2016, published 2019).
# Where no end group is shown, it is not given here.
# Tests used:
# Type in all cases: cell-based, human
# Ubiad1 [1] = test: qPCR of Ubiad1 mRNA expression in keratinocytes; details: skin keratinocytes, 1 μM (1%) Ubiad1 inducer peptide
# Description: (§1) Normal human epithelial keratinocytes were isolated from skin obtained from plastic surgery of healthy females who had given written informed consent. Keratinocytes were cultured in keratinocyte serum free medium, with provided human recombinant epidermal growth factor and bovine pituitary extract (Gibco, Auckland, NZ), and 0.1 mg/ml Primocin™ (Invivogen, San Diego, Calif., USA).
# Total RNA was extracted using mirVana miRNA isolation kit according to the manufacturer's instructions (Ambion, Austin, Tex., USA). Total RNA was reverse transcribed with the high capacity cDNA reverse transcription kit (Applied Biosystems, Branchburg, N.J., USA). Real-time polymerase chain reaction was performed according to the Taqman method, using the TaqMan Universal PCR Master Mix (Applied Biosystems) with the StepOnePlus Real-time PCR System (Applied Biosystems). Relative expression levels of each target gene were calculated according to the delta-delta-CT method.
# Ubiad1 [2] = test: Immunoblotting of Ubiad1 in keratinocytes; details: skin keratinocytes, 1 μM (1%) Ubiad1 inducer peptide
# Description: as §1
# Keratinocytes were lysed in RIPA buffer (Thermo Scientific, Rockford, Ill., USA), containing protease inhibitor cocktail and EDTA (Thermo Scientific). The protein concentration was determined using the BCA Protein Assay Kit (Thermo Scientific) and equal amounts of total protein were loaded on a 4 to 12% NuPAGE Bis-Tris Gel (Invitrogen) and transferred onto a nitrocellulose membranes using the iBlot dry blotting system (Invitrogen). Non specific binding sites were blocked, and membranes were then labeled with appropriate antibodies and developed using the SuperSignal West Femto Maximum Sensitivity Substrate kit (Thermo Scientific).
# keratinocytes [3] = test: Transmission electron microscopy of peptide-treated keratinocytes; details: cultured keratinocytes, peptide 1 tLM, 48 hours
# Description: as §1
# Cultured keratinocytes, treated with the peptide at 1 tLM concentration for 48 hours were fixed in Karnovsky's solution (Emsdiasum, Hatfield, Pa., USA) for 1 h at room temperature, and left for 12 h at 4° C. Cells were then carefully scrapped off the petridish, pelleted with a brief centrifugation, and washed with 0.1 M sodium cacodylate buffer. Pellets were routinely osmicated, dehydrated in a graded series of ethanol, and infiltrated with; and embedded in, a low viscocity epon-epoxy resin. Ultrathin sections of silver-gray interference color were cut and double-stained with uranyl acetate and lead citrate and then examined in a Zeiss 10 transmission electron microscope. Microphotographs were taken with a Gatan digital camera (Gatan, Pleasanton, Calif., USA).
# keratinocytes [4] = test: Cellular ROS measurement with CellROX green in keratinocytes exposed to cumene hydroperoxide; details: keratinocytes exposed 1 hour to 200 μM cumene hydroperoxide, peptide-treated
# Description: (A) Cellular ROS measurement in keratinocyte exposed 1 hour to 200 μM cumene hydroperoxide using the CellIROX green assay (×20 objective lens, scale bar=31 μm).
# (§2) (B) CellROX quantification graph with One-Way Analysis of Variance, displaying confidence interval means diamonds (green). The line across each diamond represents the group mean. The vertical span of each diamond represents the 95% confidence interval for each group. Grand sample mean is represented by a horizontal black line.
# (§3) Primary antibodies used were anti-Ubiad1 (sc-377013, Santa Cruz Biotechnology, Heidelberg, Gennany), anti-Giantin (ab24586, Abcamn, Cambridge, UK), anti-3-Nitrotyrosine (ab61392, Abcam). Alexa Fluor® coupled secondary antibodies were used (Molecular Probes, Eugene, Oreg., USA). Alexa Fluor® 594 Phalloidin probe were used for F-actin detection (A12381, molecular Probes). CellROX Green probe was used for monitoring intracellular ROS (C10444, molecular Probes). C11-BODIPY (581/591) was used for monitoring lipid peroxidation (C10445, Molecular Probes). […]
# (§4) All experiments have been repeated, the quantification of the fluorescence was performed by measuring the fluorescent intensity of the staining, which was normalized by cell area. Lipid peroxidation in cells was quantified according to manufacturer guideline with the ratios of the signal from the 590 to 510 channels. […]
# keratinocytes [5] = test: Lipid peroxidation (C11-BODIPY) in keratinocytes exposed to cumene hydroperoxide; details: keratinocytes exposed 1 hour to 200 μM cumene hydroperoxide, peptide-treated
# Description: (C) Lipid peroxidation in keratinocyte exposed 1 hour to 200 μM cumene hydroperoxide (reduced BODIPY in red; oxidized BODIPY in green) (×20 objective lens, scale bar=31 μm).
# as §2, with “(D) Lipid peroxidation” for “(B) CellROX”
# as §3, §4
substance,measurement,setting,value
"Ala-Val-Leu-Ala-Gly-NH2 (AVLAG-NH2) [Ubiad1 inducer peptide, artificially synthesized Ubiad1 inducer peptide]",increase of expression of Ubiad1 measured by qPCR,Ubiad1 [1],+102%
same,increase of expression of Ubiad1 measured by immunoblotting,Ubiad1 [2],+53%
same,cell morphology: mitochondrial and Golgi content of the cells,keratinocytes [3],large scale increase in the mitochondrial and Golgi content of the cells
same,resistance to ROS accumulation,keratinocytes [4],more resistant to ROS accumulation
same,resistance to lipid peroxidation,keratinocytes [5],more resistant
